Assay results taken from the supplement of paper PMC10307832.

Assays:
Assay in all cases: relative viability (nuclei count vs DMSO), 5 days (fraction); higher = more cells survive
[1] = compound: C[C@@]1(C(=O)Nc2ccc(F)nc2)CCCN1c1nc(Nc2cc(C3CC3)n[nH]2)c2cccn2n1 + CS(=O)(=O)N1CCN(Cc2cc3nc(-c4cccc5[nH]ncc45)nc(N4CCOCC4)c3s2)CC1 [Pictilisib] (partner 1 µM)
How it was run: (§1)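 For relative viability, nuclei counts in treated wells were divided by those in vehicle wells. Lung cancer cell lines had been pin-tool dosed in 1536-well plates the day after seeding and cultured for 5 days, then fixed and stained in one step (final 0.05% Triton X-100, 1% formaldehyde, 1 ug/ml Hoechst) and imaged at 4×. Doses were one drug alone or a fixed anchor-drug dose plus five library-drug doses (not always all listed) in √10 steps, and values are duplicate-plate medians.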

Motesanib + Olaparib = compound: CC1(C)CNc2cc(NC(=O)c3cccnc3NCc3ccncc3)ccc21 [Motesanib] + O=C(c1cc(Cc2n[nH]c(=O)c3ccccc23)ccc1F)N1CCN(C(=O)C2CC2)CC1 [Olaparib] (partner 8 µM)
How it was run: as §1

[2] = compound: C[C@@]1(C(=O)Nc2ccc(F)nc2)CCCN1c1nc(Nc2cc(C3CC3)n[nH]2)c2cccn2n1 + O=C(c1cc(Cc2n[nH]c(=O)c3ccccc23)ccc1F)N1CCN(C(=O)C2CC2)CC1 [Olaparib] (partner 8 µM)
How it was run: as §1

Motesanib + Dasatinib = compound: CC1(C)CNc2cc(NC(=O)c3cccnc3NCc3ccncc3)ccc21 [Motesanib] + Cc1nc(Nc2ncc(C(=O)Nc3c(C)cccc3Cl)s2)cc(N2CCN(CCO)CC2)n1 [Dasatinib] (partner 0.075 µM)
How it was run: as §1

Cell Line: UMC-11
- relative viability ([1]; first compound 0.04 µM): 0.776
- relative viability ([1]; first compound 0.1265 µM): 0.868
- relative viability ([1]; first compound 0.4 µM): 0.805
- relative viability ([1]; first compound 1.265 µM): 0.723
- relative viability (Motesanib + Olaparib; first compound 0.01 µM): 0.395
- relative viability (Motesanib + Olaparib; first compound 0.03162 µM): 0.356
- relative viability (Motesanib + Olaparib; first compound 0.1 µM): 0.367
- relative viability (Motesanib + Olaparib; first compound 0.3162 µM): 0.378
- relative viability (Motesanib + Olaparib; first compound 1 µM): 0.34
- relative viability ([2]; first compound 0.04 µM): 0.376
- relative viability ([2]; first compound 0.1265 µM): 0.316
- relative viability ([2]; first compound 0.4 µM): 0.336
- relative viability ([2]; first compound 1.265 µM): 0.426
- relative viability (Motesanib + Dasatinib; first compound 0.01 µM): 0.435
- relative viability (Motesanib + Dasatinib; first compound 0.03162 µM): 0.447
- relative viability (Motesanib + Dasatinib; first compound 0.1 µM): 0.489
- relative viability (Motesanib + Dasatinib; first compound 0.3162 µM): 0.477
- relative viability (Motesanib + Dasatinib; first compound 1 µM): 0.471
